Patent US20240294572A1, “Antimicrobial Peptides” (priority 2021, published 2024)
In brackets after ≈: the same amount, converted by molar mass. No end group written: not given here.

Legend:
E. coli ATCC 25922 [1] = type: cell-based
In short: (§1)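 Broth microdilution after CLSI M07-A10, modified: 2-fold peptide dilutions plus log-phase bacteria diluted to 0.001 OD, incubated overnight at 37° C, absorbance read at 630 nm. Medium effects probed with varied pH, NaCl or human serum in TSB (control pH 7.4), with 10%, 50%, 100% TSB, and with MHB.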

S. aureus USA300 LAC = type: cell-based; conditions: USA300
In short: as §1

E. coli ATCC 25922 [2] = conditions: LL-37 value taken from Narayana, et al.; cited from earlier work
[3] = tested on: Klebsiella pneumonia ATCC 13883; conditions: LL-37 value taken from Narayana, et al.; cited from earlier work
P. aeruginosa PAO1 = conditions: LL-37 value taken from Narayana, et al.; cited from earlier work
[4] = tested on: human red blood cells (hRBCs); conditions: 50% hemolysis; LL-37 value taken from Narayana, et al.; cited from earlier work
[5] = target: T1, Apolipoprotein A-I (Q00623) (Mus musculus, UniProt Q00623); test: Mass spectrometry of mouse plasma proteins bound to bead-immobilized peptide; type: binding; conditions: peptide on beads, 5% mouse plasma, 18 hours
T1 construct: incubated with 5% mouse plasma; from tissue; host or cells: mouse plasma (5%)
T1 sequence (Q00623 19-264): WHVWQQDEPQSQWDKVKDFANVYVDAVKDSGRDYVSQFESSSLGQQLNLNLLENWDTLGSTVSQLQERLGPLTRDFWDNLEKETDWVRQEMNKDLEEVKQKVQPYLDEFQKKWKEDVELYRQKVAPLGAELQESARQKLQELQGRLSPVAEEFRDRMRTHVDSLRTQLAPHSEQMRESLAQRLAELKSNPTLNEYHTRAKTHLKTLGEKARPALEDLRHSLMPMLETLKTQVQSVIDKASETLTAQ
Procedure: (§2) Dynabeads M-370 amine (2×10^9 beads/mL, 50 μL; Thermo Fisher Scientific) were washed 3 times in sterile PBS (1 mL; GIBCO) and reacted with a bifunctional SM(PEG)4 cross-linker (5 mg/mL in DMSO) containing N-hydroxysuccinimide (NHS) ester and maleimide functional groups. A stable covalent bond between the amino group of beads and the NHS ester of the cross-linker was formed in PBS at pH 7.2 at room temperature for 24 hours with shaking at 80 rpm. The beads were then washed six times with PBS to remove nonreacted cross-linker. Next, peptide C10-KR8 (with a cysteine at the N-terminus) at 5 mg/mL was reacted with the free maleimide group in PBS for 24 hours at room temperature with shaking at 80 rpm. Another round of washing was conducted to remove the nonreacted peptides. Both the L-and D-forms of the peptide were coupled in the same manner. A portion of the beads without peptide coupling was saved as a control.
(§3) For serum binding experiments, the beads were resuspended in 500 μL of PBS; 200-μL aliquots of the coated and control dynabead were incubated with 5% mouse plasma for 18 hours at 37° C. After binding, the beads were washed six times with PBS to remove unbound proteins. Finally, the beads were suspended in 50 μL of PBS for mass spectrophotometric analysis to identify peptide-binding partners.
(§4) The samples were reduced by 10 mM dithiothreitol (DTT) and incubated for 30 minutes at 56° C. and back to room temperature. A final concentration of 50 mM iodoacetamide was added to alkylate free cysteines followed by further incubation for 20 min in the dark. Bound proteins were enzymatically digested by trypsin (4 μL of 0.5 μg/mL) overnight. A 60 […] portion was transferred to a new Eppendorf® tube and dried for 2 hours. The samples were then dissolved in 20 μL of 2% acetonitrile with 0.1% formic acid before being loaded to Q-tip columns (Pepclean, C18 spin column). Column was activated by pipetting in and out (4× times), 10 μL of 70% acetonitrile with 0.1% formic acid, and equilibrating with the same volume of 2% acetonitrile with 0.1% formic acid. Binding of the samples was done by mixing more than 10 × times, followed by washing in the same buffer (2% acetonitrile with 0.1% formic acid). The bound peptides were then eluted with 20 μL of 70% acetonitrile with 0.1% formic acid. Samples were subjected to LC-MS analysis after being suspended in the desired buffer.
(§5) Extracted peptides were resuspended in 2% acetonitrile (ACN) and 0.1% formic acid (FA) and loaded onto trap column Acclaim™ PepMap™ 100 75 μm×2 cm C18 LC Columns (Thermo Scientific) at a flow rate of 4 μL/minute. These were then separated with a Thermo RSLC UltiMate™ 3000 on a Thermo Easy-Spray PepMap™ M RSLC C18 75 μm×50 cm C-18 2 μm column (Thermo Scientific) with a step gradient of 4-25% solvent B (0.1% FA in 80% ACN) from 10 to 37 minutes and 25-45% solvent B for 37-46 minutes at 300 nL/min and 50° C. with a 70 minute total run time. Eluted peptides were analyzed by a Thermo Orbitrap Fusion™ Lumos™ Tribrid™ (Thermo Scientific) mass spectrometer in a data dependent acquisition mode. A survey full scan MS (from m/z 350-1800) was acquired in the orbitrap with a resolution of 120000. The AGC target for MS1 was set as 4×10^5 and the ion filling time set as 100 ms. The most intense ions with charge state 2-6 were isolated in 3 second cycle and fragmented using HCD fragmentation with 40% normalized collision energy and detected at a mass resolution of 30000 at 200 m/z. The AGC target for MS/MS was set as 5×10^4 and ion filling time set 60 ms dynamic exclusion was set for 30 seconds with a 10 ppm mass window. Protein identification was performed by searching MS/MS data against the Swiss-Prot mouse protein database. The search was set up for full tryptic peptides with a maximum of two missed cleavage sites. Acetylation of protein N-terminus and oxidized methionine were included as variable modifications, and carbamidomethylation of cysteine was set as fixed modification. […]

[6] = target: T2, Apolipoprotein A-II (P09813) (Mus musculus, UniProt P09813); test: as above; type: binding; conditions: peptide on beads, 5% mouse plasma, 18 hours
T2 construct: incubated with 5% mouse plasma; from tissue; host or cells: mouse plasma (5%)
Procedure: as §2, §3, §4, §5

[7] = target: T3, Apolipoprotein A-IV (P06728) (Mus musculus, UniProt P06728); test: as above; type: binding; conditions: peptide on beads, 5% mouse plasma, 18 hours
T3 construct: incubated with 5% mouse plasma; from tissue; host or cells: mouse plasma (5%)
T3 sequence (P06728 21-395): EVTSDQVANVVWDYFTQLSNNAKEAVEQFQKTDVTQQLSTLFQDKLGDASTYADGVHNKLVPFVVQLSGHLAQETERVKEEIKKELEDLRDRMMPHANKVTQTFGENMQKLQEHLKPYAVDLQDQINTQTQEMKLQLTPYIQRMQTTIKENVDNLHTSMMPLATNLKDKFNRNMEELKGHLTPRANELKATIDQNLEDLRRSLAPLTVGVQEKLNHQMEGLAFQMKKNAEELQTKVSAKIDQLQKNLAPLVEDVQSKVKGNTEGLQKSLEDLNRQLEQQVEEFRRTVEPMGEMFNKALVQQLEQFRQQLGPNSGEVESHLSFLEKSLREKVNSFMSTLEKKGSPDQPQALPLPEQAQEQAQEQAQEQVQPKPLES
Procedure: as §2, §3, §4, §5

[8] = target: T4, Apolipoprotein C-I (P34928) (Mus musculus, UniProt P34928); test: as above; type: binding; conditions: peptide on beads, 5% mouse plasma, 18 hours
T4 construct: incubated with 5% mouse plasma; from tissue; host or cells: mouse plasma (5%)
T4 sequence (P34928 27-88): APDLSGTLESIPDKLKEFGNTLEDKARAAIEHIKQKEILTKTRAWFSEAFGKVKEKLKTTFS
Procedure: as §2, §3, §4, §5

[9] = target: T5, Apolipoprotein C-III (P33622) (Mus musculus, UniProt P33622); test: as above; type: binding; conditions: peptide on beads, 5% mouse plasma, 18 hours
T5 construct: incubated with 5% mouse plasma; from tissue; host or cells: mouse plasma (5%)
T5 sequence (P33622 21-99): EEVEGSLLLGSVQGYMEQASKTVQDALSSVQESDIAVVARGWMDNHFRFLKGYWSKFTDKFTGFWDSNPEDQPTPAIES
Procedure: as §2, §3, §4, §5

[10] = target: T6, Apolipoprotein E (P08226) (Mus musculus, UniProt P08226); test: as above; type: binding; conditions: peptide on beads, 5% mouse plasma, 18 hours
T6 construct: incubated with 5% mouse plasma; from tissue; host or cells: mouse plasma (5%)
T6 sequence (P08226 19-311): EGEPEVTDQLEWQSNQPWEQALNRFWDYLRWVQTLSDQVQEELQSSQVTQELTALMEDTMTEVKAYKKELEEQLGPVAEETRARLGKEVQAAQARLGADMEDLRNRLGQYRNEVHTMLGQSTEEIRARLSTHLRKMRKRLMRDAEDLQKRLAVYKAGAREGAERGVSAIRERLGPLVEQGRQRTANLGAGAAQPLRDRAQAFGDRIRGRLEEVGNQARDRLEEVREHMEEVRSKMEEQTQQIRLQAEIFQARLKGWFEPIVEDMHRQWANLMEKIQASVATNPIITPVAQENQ
Procedure: as §2, §3, §4, §5

Serum albumin (P07724) = target: T7, Serum albumin (P07724) (Mus musculus, UniProt P07724); test: as above; type: binding; conditions: peptide on beads, 5% mouse plasma, 18 hours
T7 construct: incubated with 5% mouse plasma; from tissue; host or cells: mouse plasma (5%)
Procedure: as §2, §3, §4, §5

T7 sequence (P07724 25-608): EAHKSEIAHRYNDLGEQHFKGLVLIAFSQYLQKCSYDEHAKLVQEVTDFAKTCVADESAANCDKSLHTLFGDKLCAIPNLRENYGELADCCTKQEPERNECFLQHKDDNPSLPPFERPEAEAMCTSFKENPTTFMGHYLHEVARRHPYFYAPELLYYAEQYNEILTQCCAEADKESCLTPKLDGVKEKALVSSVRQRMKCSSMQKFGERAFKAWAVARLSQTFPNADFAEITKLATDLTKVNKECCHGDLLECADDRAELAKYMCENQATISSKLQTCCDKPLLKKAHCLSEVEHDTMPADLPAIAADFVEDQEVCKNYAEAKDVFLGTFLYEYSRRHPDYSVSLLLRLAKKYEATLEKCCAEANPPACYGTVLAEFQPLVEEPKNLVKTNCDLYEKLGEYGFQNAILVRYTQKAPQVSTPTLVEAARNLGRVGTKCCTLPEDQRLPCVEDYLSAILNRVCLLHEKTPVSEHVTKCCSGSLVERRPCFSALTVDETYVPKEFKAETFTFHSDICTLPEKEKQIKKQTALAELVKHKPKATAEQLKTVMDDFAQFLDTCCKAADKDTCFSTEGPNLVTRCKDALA
T2 sequence (P09813 19-102): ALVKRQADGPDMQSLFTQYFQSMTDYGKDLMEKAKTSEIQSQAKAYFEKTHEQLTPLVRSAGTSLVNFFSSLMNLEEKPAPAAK

Intensity of bound Apolipoprotein A-I [5]	Intensity of bound Apolipoprotein A-II [6]	Intensity of bound Apolipoprotein A-IV [7]	Intensity of bound Apolipoprotein C-I [8]	Intensity of bound Apolipoprotein C-III [9]	Intensity of bound Apolipoprotein E [10]	Intensity of bound Serum albumin (Serum albumin (P07724))	Molecule	Minimal inhibitory concentration against E. coli, 10% TSB (E. coli ATCC 25922 [1])	Minimal inhibitory concentration against E. coli, 50% TSB (E. coli ATCC 25922 [1])	Minimal inhibitory concentration against E. coli, 100% MHB (E. coli ATCC 25922 [1])	Minimal inhibitory concentration against E. coli, 100% TSB (E. coli ATCC 25922 [1])	Minimal inhibitory concentration against S. aureus, 10% TSB (S. aureus USA300 LAC)	Minimal inhibitory concentration against S. aureus, 50% TSB (S. aureus USA300 LAC)	Minimal inhibitory concentration against S. aureus, 100% MHB (S. aureus USA300 LAC)	Minimal inhibitory concentration against S. aureus, 100% TSB (S. aureus USA300 LAC)	MIC (μM) EC (E. coli ATCC 25922 [2])	MIC (μM) KP [3]	MIC (μM) PA (P. aeruginosa PAO1)	HC50 [4]
–	–	–	–	–	–	–	CC[C@H](C)[C@H](NC(=O)[C@H](CCCCN)NC(=O)[C@H](CCC(=O)O)NC(=O)[C@H](CCCCN)NC(=O)[C@H](CO)NC(=O)[C@H](CCCCN)NC(=O)[C@H](CCCNC(=N)N)NC(=O)[C@H](Cc1ccccc1)NC(=O)[C@H](Cc1ccccc1)NC(=O)[C@H](CC(=O)O)NC(=O)CNC(=O)[C@H](CC(C)C)NC(=O)[C@@H](N)CC(C)C)C(=O)NCC(=O)N[C@@H](CCCCN)C(=O)N[C@@H](CCC(=O)O)C(=O)N[C@@H](Cc1ccccc1)C(=O)N[C@@H](CCCCN)C(=O)N[C@@H](CCCNC(=N)N)C(=O)N[C@H](C(=O)N[C@H](C(=O)N[C@@H](CCC(N)=O)C(=O)N[C@@H](CCCNC(=N)N)C(=O)N[C@H](C(=O)N[C@@H](CCCCN)C(=O)N[C@@H](CC(=O)O)C(=O)N[C@@H](Cc1ccccc1)C(=O)N[C@@H](CC(C)C)C(=O)N[C@@H](CCCNC(=N)N)C(=O)N[C@@H](CC(N)=O)C(=O)N[C@@H](CC(C)C)C(=O)N[C@H](C(=O)N1CCC[C@H]1C(=O)N[C@@H](CCCNC(=N)N)C(=O)N[C@H](C(=O)N[C@@H](CCC(=O)O)C(=O)N[C@@H](CO)C(N)=O)[C@@H](C)O)C(C)C)[C@@H](C)CC)C(C)C)[C@@H](C)CC [LL-37, reference compound]	1.6 µM (≈ 7.19 µg/mL)	6.2 µM (≈ 27.9 µg/mL)	6.2 µM (≈ 27.9 µg/mL)	6.25 to 12.5 µM	50 µM (≈ 225 µg/mL)	> 50 µM	>50 µM	> 50 µM	3.1 to 6.2 µM	6.2 µM (≈ 27.9 µg/mL)	>50 µM	170 µM
4.29E+09	3.65E+05	3.21E+08	4.35E+08	2.02E+08	1.68E+07	3.72E+10	C10-KR8 + linker: C10-KR8 with a cysteine, covalently attached via SM(PEG)4 cross-linker to Dynabeads M-370 amine (CKRIWQRIK; not fully specified (residue 1, N-terminus, C-terminus); also: added N-terminal Cys coupled via SM(PEG)4 to Dynabeads M-370 amine)	–	–	–	–	–	–	–	–	–	–	–	–
